Test [1] deals with T1, Ubiquitin carboxyl-terminal hydrolase 28 (Homo sapiens, UniProt Q96RU2).
T1 sequence (Q96RU2 whole entry): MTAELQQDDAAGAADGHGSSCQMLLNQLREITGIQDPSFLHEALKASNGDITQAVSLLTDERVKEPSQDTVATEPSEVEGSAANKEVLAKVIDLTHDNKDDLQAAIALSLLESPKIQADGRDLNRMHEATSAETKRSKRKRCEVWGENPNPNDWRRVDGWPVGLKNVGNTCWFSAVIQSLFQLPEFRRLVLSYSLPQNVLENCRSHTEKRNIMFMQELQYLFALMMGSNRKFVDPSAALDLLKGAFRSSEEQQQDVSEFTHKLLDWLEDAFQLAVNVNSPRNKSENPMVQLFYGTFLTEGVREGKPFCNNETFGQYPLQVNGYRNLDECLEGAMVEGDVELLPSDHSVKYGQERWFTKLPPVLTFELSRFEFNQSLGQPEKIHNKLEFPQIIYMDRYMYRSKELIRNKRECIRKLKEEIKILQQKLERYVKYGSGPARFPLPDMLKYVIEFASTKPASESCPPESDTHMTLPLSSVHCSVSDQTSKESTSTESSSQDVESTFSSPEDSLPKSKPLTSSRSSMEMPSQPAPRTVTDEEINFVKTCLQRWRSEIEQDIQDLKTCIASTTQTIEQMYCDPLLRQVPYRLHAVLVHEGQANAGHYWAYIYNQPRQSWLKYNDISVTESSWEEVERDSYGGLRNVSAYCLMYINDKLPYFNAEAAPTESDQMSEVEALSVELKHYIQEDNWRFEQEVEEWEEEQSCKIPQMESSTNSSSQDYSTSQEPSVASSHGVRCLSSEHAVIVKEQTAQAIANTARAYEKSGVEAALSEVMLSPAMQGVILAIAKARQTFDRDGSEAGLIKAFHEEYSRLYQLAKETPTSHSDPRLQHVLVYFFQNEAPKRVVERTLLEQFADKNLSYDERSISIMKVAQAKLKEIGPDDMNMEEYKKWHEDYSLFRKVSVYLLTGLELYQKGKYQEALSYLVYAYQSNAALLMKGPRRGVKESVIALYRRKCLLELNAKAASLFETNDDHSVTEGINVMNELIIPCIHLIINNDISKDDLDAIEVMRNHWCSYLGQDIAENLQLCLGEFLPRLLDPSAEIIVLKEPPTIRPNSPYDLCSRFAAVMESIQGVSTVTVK
Kind of test: Inhibition of TEV-cleavable hexa-histidine tagged USP28 (1 to 1077 residues) (unknown origin) using ubiquitin-rhodamine 110 as substrate and measured after 90 mins by fluorescence based assay.

Test [2] has as its target T2, Ubiquitin carboxyl-terminal hydrolase 25 (Homo sapiens, UniProt Q9UHP3).
T2 sequence (Q9UHP3 whole entry): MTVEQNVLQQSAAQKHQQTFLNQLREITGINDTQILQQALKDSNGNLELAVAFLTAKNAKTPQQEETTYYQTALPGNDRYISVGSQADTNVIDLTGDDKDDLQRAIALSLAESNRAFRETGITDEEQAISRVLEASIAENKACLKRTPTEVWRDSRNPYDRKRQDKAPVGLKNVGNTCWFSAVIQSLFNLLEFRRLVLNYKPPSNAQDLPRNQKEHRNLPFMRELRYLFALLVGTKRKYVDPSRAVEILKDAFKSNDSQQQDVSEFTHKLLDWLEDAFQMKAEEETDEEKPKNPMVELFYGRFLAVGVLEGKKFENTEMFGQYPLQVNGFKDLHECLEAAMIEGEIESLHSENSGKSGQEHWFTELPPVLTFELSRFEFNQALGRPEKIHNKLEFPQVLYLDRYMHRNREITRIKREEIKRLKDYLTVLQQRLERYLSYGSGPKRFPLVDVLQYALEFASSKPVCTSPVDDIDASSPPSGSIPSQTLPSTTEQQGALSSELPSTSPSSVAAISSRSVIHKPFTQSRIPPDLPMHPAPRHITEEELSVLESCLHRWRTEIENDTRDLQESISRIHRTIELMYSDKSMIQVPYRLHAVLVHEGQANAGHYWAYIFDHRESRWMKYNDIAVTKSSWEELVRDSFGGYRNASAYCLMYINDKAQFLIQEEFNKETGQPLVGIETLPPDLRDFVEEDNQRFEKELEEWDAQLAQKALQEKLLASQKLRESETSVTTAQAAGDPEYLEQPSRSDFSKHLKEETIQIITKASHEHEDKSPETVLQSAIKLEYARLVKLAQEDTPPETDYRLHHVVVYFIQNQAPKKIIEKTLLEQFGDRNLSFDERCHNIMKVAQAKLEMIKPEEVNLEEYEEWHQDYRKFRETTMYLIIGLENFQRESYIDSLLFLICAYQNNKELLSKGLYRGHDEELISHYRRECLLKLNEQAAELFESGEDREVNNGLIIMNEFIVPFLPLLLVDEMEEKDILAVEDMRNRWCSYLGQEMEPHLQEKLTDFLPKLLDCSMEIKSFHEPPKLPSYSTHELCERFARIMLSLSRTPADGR
Put plainly: Inhibition of recombinant C-terminal 6-His tagged human USP25 using ubiquitin-rhodamine 110 as substrate preincubated for 30 mins followed by substrate addition and measured after 45 mins by fluorescence based assay.

For the compound `Cc1ccc2c(N)c(C(=O)NCCc3ccc(N4CCC5(CC4)CNC5)cc3)sc2n1`, the IC50 (commonly the point on the concentration scale where inhibition reaches its midpoint) in test [1] is < 0.2 µM; in test [2], 0.2 to 2 µM.
For `CN[C@H]1CCN(c2ccc(CCNC(=O)c3sc4nc(C)ccc4c3N)cc2)C1`, in that order: 0.2 to 2 µM and 0.2 to 2 µM.
With `Cc1ccc2c(N)c(C(=O)NCCc3ccc(N4CCC5(CCNC5)C4)cc3)sc2n1` (centres undefined), the IC50 was 0.2 to 2 µM in test [1] and 2 to 10 µM in test [2].
On the same counts, the results for `Cc1ccc2c(N)c(C(=O)NCCc3ccc(N4CCCC45CCCNC5)cc3)sc2n1` (centres undefined) are < 0.2 µM and 0.2 to 2 µM.
On the same counts, the results for `Cc1ccc2c(N)c(C(=O)NCCc3ccc(N4CCCNCC4)cc3)sc2n1` are 0.2 to 2 µM and 0.2 to 2 µM.
On the same counts, the results for `Cc1ccc2c(N)c(C(=O)NCCc3ccc(N4CCNCC4)c(-c4cnn(C)c4)c3)sc2n1` are 0.2 to 2 µM and 2 to 10 µM.
With `Cc1ccc2c(N)c(C(=O)NCCc3ccc(N4CCN[C@H](C)C4)cc3)sc2n1`, the results for the IC50 in test [1] and in test [2] were < 0.2 µM and 0.2 to 2 µM, respectively.
For `Cc1ccc2c(N)c(C(=O)NCCc3ccc(N4CCNCC4)c(-c4cncnc4)c3)sc2n1`, in that order: 0.2 to 2 µM and 0.2 to 2 µM.
With `Cc1ccc2c(N)c(C(=O)NCCc3ccc(N4CCC5(CCNC5)CC4)cc3)sc2n1`, the IC50 in test [1] lay within 0.2 to 2 µM.
Regarding `Cc1ccc2c(N)c(C(=O)NCCc3ccc(N4C[C@H]5CNC[C@H]5C4)cc3)sc2n1`, the IC50 in test [1] and in test [2] was 0.2 to 2 µM each time.
On to `Cc1cccc(-c2cc(CCNC(=O)c3sc4nc(C)ccc4c3N)ccc2N2CCNCC2)c1`, for which the IC50 fell in the range of 10 to 25 µM in test [1] and 2 to 10 µM in test [2].
On the same counts, the results for `Cc1ccc2c(N)c(C(=O)NCCc3ccc(N4CCCC5(CCNC5)C4)cc3)sc2n1` (centres undefined) are 0.2 to 2 µM and 0.2 to 2 µM.
On the same counts, the results for `Cc1ccc2c(N)c(C(=O)NCCc3ccc(N(C)CC4CCCNC4)cc3)sc2n1` (centres undefined) are 0.2 to 2 µM and 0.2 to 2 µM.
On the same counts, the results for `Cc1ccc2c(N)c(C(=O)NCCc3ccc(N4CCNCC4)c(-c4cccc(Cl)c4)c3)sc2n1` are 2 to 10 µM and 2 to 10 µM.
As to `Cc1ccc2c(N)c(C(=O)NCCc3ccc(N4CCNCC4)c(-c4ccc(Cl)cc4)c3)sc2n1`, the IC50 in test [1] and in test [2] was 2 to 10 µM throughout.
On to `Cc1ccc2c(N)c(C(=O)NCCc3ccc(N4CCNCC4)c(-c4ccccc4F)c3)sc2n1`, for which the results for the IC50 in test [1] and in test [2] were 0.2 to 2 µM and 2 to 10 µM, respectively.
For `Cc1ccc2c(N)c(C(=O)NCCc3ccc(N4CCC5(CNCCO5)C4)cc3)sc2n1` (centres undefined), in that order: 0.2 to 2 µM and 2 to 10 µM.
In test [1], `CNC1CCN(c2ccc(CCNC(=O)c3sc4nc(C)ccc4c3N)cc2)CC1` returned an IC50 of 0.2 to 2 µM.
Turning to `Cc1ccc2c(N)c(C(=O)NCCc3ccc(N4CCC5(CCNCC5)C4)cc3)sc2n1`, the concentration for half-maximal inhibition (IC50) is 0.2 to 2 µM in test [1] and 2 to 10 µM in test [2].
For `Cc1ccc2c(N)c(C(=O)NCCc3ccc(N4CCN[C@@H](C(C)C)C4)cc3)sc2n1`, in that order: 0.2 to 2 µM and 0.2 to 2 µM.
On the same counts, the results for `Cc1ccc2c(N)c(C(=O)NCCc3ccc(N4CC5(CNC5)C4)cc3)sc2n1` are 0.2 to 2 µM and 2 to 10 µM.
`CN[C@@H]1CCN(c2ccc(CCNC(=O)c3sc4nc(C)ccc4c3N)cc2)C1` displayed an IC50 in test [1] of 0.2 to 2 µM.
With `Cc1ccc2c(N)c(C(=O)NCCc3ccc(N4CCOC5(CCNCC5)C4)cc3)sc2n1`, in test [1], the IC50 was 0.2 to 2 µM.
As for `Cc1ccc2c(N)c(C(=O)NCCc3ccc(N4CCN[C@H](C(C)C)C4)cc3)sc2n1`, the IC50 is < 0.2 µM in test [1] and 0.2 to 2 µM in test [2].
For `Cc1ccc2c(N)c(C(=O)NCCc3ccc(N4CCCC5(CCNCC5)C4)cc3)sc2n1`, in that order: < 0.2 µM and 0.2 to 2 µM.
With `COCCn1cc(-c2cc(CCNC(=O)c3sc4nc(C)ccc4c3N)ccc2N2CCNCC2)cn1`, the IC50 in test [1] and in test [2] was 2 to 10 µM each time.
In turn, `CC(=O)Nc1ccc2c(N)c(C(=O)NCCc3ccc(N4CCNCC4)cc3)sc2n1` gave an IC50 in test [1] of 2 to 10 µM.
On to `Cc1ccc2c(N)c(C(=O)NCCc3ccc(N4CCC5(CCCNC5)CC4)cc3)sc2n1`, for which the IC50 in test [1] and in test [2] was 0.2 to 2 µM throughout.
For the compound `Cc1ccc2c(N)c(C(=O)NCCc3ccc(N4CC5(CCCN5)C4)cc3)sc2n1`, the IC50 in test [1] was < 0.2 µM; in test [2] it was 0.2 to 2 µM.
For `Cc1ccc2c(N)c(C(=O)NCCc3ccc(N4CCCC5(CCCNC5)C4)cc3)sc2n1` (centres undefined), in that order: 0.2 to 2 µM and 0.2 to 2 µM.
`Cc1ccc2c(N)c(C(=O)NCCc3ccc(N[C@@H]4CCNC4)cc3)sc2n1`: the IC50 in test [1] was < 0.2 µM.
For the compound `Cc1ccc2c(N)c(C(=O)NCCc3ccc(N4CC[C@H]5CNC[C@H]5C4)cc3)sc2n1`, in test [1], the half-maximal inhibitory concentration (IC50) lay within 0.2 to 2 µM.
For the compound `Cc1ccc2c(N)c(C(=O)NCCc3ccc(N4CCNCC4)c(-c4cccc(F)c4)c3)sc2n1`, the IC50 in test [1] and in test [2] was 2 to 10 µM in each case.
For `Cc1ccc2c(N)c(C(=O)NCCc3ccc(N4CCNC[C@@H]4C)cc3)sc2n1`, the IC50 in test [1] is < 0.2 µM.
Take `Cc1ccc2c(N)c(C(=O)NCCc3ccc(N4CCNCC4)c(-c4ccccc4Cl)c3)sc2n1`: the IC50 in test [1] and in test [2] was 0.2 to 2 µM in each case.
`Cc1ccc2c(N)c(C(=O)NCCc3ccc(N4CCNCC4)c(-c4ccc(F)cc4)c3)sc2n1`: the 50% inhibitory concentration (IC50) in test [1] and in test [2] was 2 to 10 µM in each case.
For `Cc1ccc2c(N)c(C(=O)NCCc3ccc(N4CCNCC4)c(-c4ccccc4C)c3)sc2n1`, the half-maximal inhibitory concentration (IC50) in test [1] lay in the range of 0.2 to 2 µM; in test [2], 2 to 10 µM.
Regarding `Cc1ccc2c(N)c(C(=O)NCCc3ccc(N4CCNC[C@H]4C)cc3)sc2n1`, the IC50 in test [1] and in test [2] was < 0.2 µM throughout.
Consider `Cc1ccc2c(N)c(C(=O)NCCc3ccc(N4CCC(NC5CC5)C4)cc3)sc2n1` (centres undefined), for which the half-maximal inhibitory concentration (IC50) in test [1] and in test [2] was 0.2 to 2 µM throughout.
With `Cc1cc(-c2cc(CCNC(=O)c3sc4nc(C)ccc4c3N)ccc2N2CCNCC2)ccn1`, the 50% inhibitory concentration (IC50) in test [1] lay in the range of 2 to 10 µM; in test [2] it was 10 to 25 µM.
On the same counts, the results for `Cc1ccc(-c2cc(CCNC(=O)c3sc4nc(C)ccc4c3N)ccc2N2CCNCC2)cc1` are 2 to 10 µM and 2 to 10 µM.
